The values that follow come from patent publication US20260102502A1, “C[…] COMPOSITIONS FOR TARGETED […]” (priority 2022, published 2026).

Molecules are shown by their SMILES.

This series in a line: water solubility of free drug and dendrimer-drug conjugates.

With `CCCCCCC(C)(C)c1cc(OC)c([C@@H]2C=C(CO)[C@@H]3C[C@H]2C3(C)C)c(OC)c1` [Hu308], the “Water Solubility Free drug*” value (free, unconjugated drug of GD-Hu308 (Table 4)) is under 0.1 mg/mL. This compound showed a solubility (water) of under 0.1 mg/mL.
